Each structure is given as a SMILES string.

The target in this test is T1, Fatty-acid amide hydrolase 1 [30-579] (Rattus norvegicus, UniProt P97612).
T1 construct: 30-579
T1 sequence (P97612 whole entry): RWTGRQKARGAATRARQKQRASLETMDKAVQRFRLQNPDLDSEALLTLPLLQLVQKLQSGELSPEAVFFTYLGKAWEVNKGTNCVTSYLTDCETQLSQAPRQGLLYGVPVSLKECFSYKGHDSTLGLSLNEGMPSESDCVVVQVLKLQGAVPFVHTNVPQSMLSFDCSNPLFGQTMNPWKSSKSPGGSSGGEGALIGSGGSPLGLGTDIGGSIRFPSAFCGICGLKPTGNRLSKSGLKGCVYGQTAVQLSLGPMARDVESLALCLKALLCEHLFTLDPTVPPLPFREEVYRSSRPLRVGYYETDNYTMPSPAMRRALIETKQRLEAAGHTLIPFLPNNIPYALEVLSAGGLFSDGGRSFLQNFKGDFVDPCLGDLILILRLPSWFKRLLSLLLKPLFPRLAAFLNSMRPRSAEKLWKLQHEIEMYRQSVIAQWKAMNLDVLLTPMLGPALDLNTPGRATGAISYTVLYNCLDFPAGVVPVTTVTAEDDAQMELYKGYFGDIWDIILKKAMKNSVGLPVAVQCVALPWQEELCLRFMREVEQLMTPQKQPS
Put plainly: FAAH Inhibition Assay. The procedure: Membrane fractions were prepared from Wistar rat brain homogenates, and FAAH activity were assayed by using [3H]anandamide (anandamide[ethanolamine-3H], 60 Cimmol-1, from American Radiolabeled Chemicals, St. Louis, USA) as a substrate.
In the case of `Nc1ccc(-c2ccccc2)cc1OC(=O)NC1CCCCC1` [FAAH Inhibitor, 2b], the IC50 – broadly, the concentration at which inhibition is half-maximal – amounted to 4.83 µM. In other words, the single-digit micromolar range. Consider `Cc1ccc(OC(=O)NC2CCCCC2)cc1-c1ccccc1` [FAAH Inhibitor, 2f], for which the midpoint of inhibition, the IC50, lay at 0.176 µM. For `Nc1ccc(OC(=O)NC2CCCCC2)cc1-c1ccccc1` [FAAH Inhibitor, 2d] the value was 0.052 µM. In turn, `CN(C)c1ccc(OC(=O)NC2CCCCC2)cc1-c1ccccc1` [FAAH Inhibitor, 2i] gave an IC50 of 1.59 µM. For `O=C(NC(=O)c1ccc(OC(=O)NC2CCCCC2)cc1-c1ccccc1)NC1CCCCC1` [FAAH Inhibitor, 2j] the value was 2.74 µM. Turning to `O=C(NC1CCCCC1)Oc1ccc(O)c(-c2ccccc2)c1` [FAAH Inhibitor, 2g], half-maximal inhibition (IC50) was put at 0.045 µM. `O=C(NC1CCCCC1)Oc1ccc([N+](=O)[O-])c(-c2ccccc2)c1` [FAAH Inhibitor, 2c] yielded an IC50 of more than 30 µM. The compound `O=C(NC1CCCCC1)Oc1cccc(Oc2cccc(-c3ccccc3)c2)c1` [FAAH Inhibitor, 2l] returned an IC50 of 2.74 µM. This lies in the single-digit micromolar range. Take `O=C(NC1CCCCC1)Oc1ccc(CO)c(-c2ccccc2)c1` [FAAH Inhibitor, 2h]: the half-maximal inhibitory concentration (IC50) came out at 0.046 µM.

As for `O=C(NC1CCCCC1)Oc1cc(-c2ccccc2)ccc1[N+](=O)[O-]` [FAAH Inhibitor, 2a], the concentration for half-maximal inhibition (IC50) was more than 30 µM. In turn, `NC(=O)c1ccc(OC(=O)NC2CCCCC2)cc1-c1ccccc1` [FAAH Inhibitor, 2e] showed an IC50 of 0.252 µM. This lies in the sub-micromolar range. On to `O=C(NC1CCCCC1)Oc1ccc2ccn(-c3ccccc3)c2c1` [FAAH Inhibitor, 2k], for which half-maximal inhibition (IC50) required 1.03 µM.
